Experimental data as given in patent US11639343B2, “Compounds targeting and degrading BCR-ABL protein and its antitumor application” (ShanghaiTech University, priority 2019, dated 2023).

Legend:
[1] = target: BCR-ABL protein (Homo sapiens, UniProt P00519); experiment: Western blot degradation of BCR-ABL in K562 cells; assay type: cell-based; set-up: Western blot was used to detect the expression of BCR-ABL and c-ABL protein in K562 cells; BCR (fusion partner, P11274); endogenous in cells; host or cells: K562; the other entry of the earlier key: BCR (P11274, Breakpoint cluster region protein); details: 16 hours; for DC50: 1 nM-10 μM
Method: (§1) (1) Cell seed: K562 cells were added to the 24 well plates, with a cell density of 3×10^5/ml and a total volume of 1.5 ml; Five concentration gradients, 1 nm, 10 nm, 100 nm, 1 μM, and 10 μM, were respectively set for PROTAD series compounds and comparative examples compounds (Dasa-6-2-2-6-VHL, Dasa-6-2-6-CRBN). […] After 16 hours of drug treatment, the cells were collected in 1.5 ml ep tube, centrifuged at 3000 rpm for 3 minutes, and then added 30 μL PBS and 30 ul 2×SDS to cell precipitated, lysate Heat at 100° C. for 5 minutes, then place on ice for 5 minutes, centrifuged at 10000 rpm for 5 minutes, and take the supernatant as the total protein extracted. The protein concentration was determined by the Bradford method. After each sample was at the same concentration, bromophenol blue was added as the sample indicator.
(§2) (2) Electrophoresis: the starting voltage of the BioRad electrophoresis instrument was 80V, and as the dye enters the separation gel, the voltage was adjusted to 120V;
(§3) (3) Film transfer: prepare filter paper and nitrocellulose membrane with the corresponding size of the gel, filter paper, and NC film were soaked in transfer electrophoresis buffer.
(§4) DC50 (concentration required to degrade protein by half) were calculated based on the intensity from western blot, and data were analyzed via Prism GraphPad with non-linear regression.

[2] = target: c-ABL protein (Homo sapiens, UniProt P00519); experiment: Western blot degradation of c-ABL in K562 cells; assay type: cell-based; set-up: Western blot was used to detect the expression of BCR-ABL and c-ABL protein in K562 cells; endogenous in cells; host or cells: K562; details: 16 hours, 1 nM-10 μM
Method: as §1, §2, §3, §4

[3] = system: HEK293 (BCR-ABL-) cells; experiment: CCK-8 proliferation inhibition, HEK293 cells; details: Homo sapiens, HEK293, 48 h, read-out: Proliferative inhibitory activity (IC50, nM) HEK293 (BCR-ABL-);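 note: Ten-point threefold dilution series starting at 10 µM, CCK-8 absorbance at 450 nm read after 2 h reagent incubation, DMSO-treated cells as negative control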
[4] = system: U937 (BCR-ABL-) cells; experiment: CCK-8 proliferation inhibition, U937 cells; assay type: cell-based, human; details: Homo sapiens, U-937; CCK-8, 48 hours of drug treatment, highest concentration 10 μM; read-out: Proliferative inhibitory activity (IC50, nM) U937 (BCR-ABL-);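 note: Ten-point threefold dilution series, absorbance at 450 nm after 2 h with CCK-8 reagent, DMSO as negative control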
[5] = system: K562 (BCR-ABL+) cells; experiment: CCK-8 proliferation inhibition, K562 cells; assay type: cell-based, human; details: Homo sapiens, K562, 48 h, CCK-8, 48 hours of drug treatment; read-out: Proliferative inhibitory activity (IC50, nM) K562 (BCR-ABL+);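 note: Ten-point threefold dilution series starting at 10 µM, absorbance at 450 nm after 2 h with CCK-8, DMSO as negative control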

Sequence of BCR-ABL protein (P00519 with tags, fused parts or gaps): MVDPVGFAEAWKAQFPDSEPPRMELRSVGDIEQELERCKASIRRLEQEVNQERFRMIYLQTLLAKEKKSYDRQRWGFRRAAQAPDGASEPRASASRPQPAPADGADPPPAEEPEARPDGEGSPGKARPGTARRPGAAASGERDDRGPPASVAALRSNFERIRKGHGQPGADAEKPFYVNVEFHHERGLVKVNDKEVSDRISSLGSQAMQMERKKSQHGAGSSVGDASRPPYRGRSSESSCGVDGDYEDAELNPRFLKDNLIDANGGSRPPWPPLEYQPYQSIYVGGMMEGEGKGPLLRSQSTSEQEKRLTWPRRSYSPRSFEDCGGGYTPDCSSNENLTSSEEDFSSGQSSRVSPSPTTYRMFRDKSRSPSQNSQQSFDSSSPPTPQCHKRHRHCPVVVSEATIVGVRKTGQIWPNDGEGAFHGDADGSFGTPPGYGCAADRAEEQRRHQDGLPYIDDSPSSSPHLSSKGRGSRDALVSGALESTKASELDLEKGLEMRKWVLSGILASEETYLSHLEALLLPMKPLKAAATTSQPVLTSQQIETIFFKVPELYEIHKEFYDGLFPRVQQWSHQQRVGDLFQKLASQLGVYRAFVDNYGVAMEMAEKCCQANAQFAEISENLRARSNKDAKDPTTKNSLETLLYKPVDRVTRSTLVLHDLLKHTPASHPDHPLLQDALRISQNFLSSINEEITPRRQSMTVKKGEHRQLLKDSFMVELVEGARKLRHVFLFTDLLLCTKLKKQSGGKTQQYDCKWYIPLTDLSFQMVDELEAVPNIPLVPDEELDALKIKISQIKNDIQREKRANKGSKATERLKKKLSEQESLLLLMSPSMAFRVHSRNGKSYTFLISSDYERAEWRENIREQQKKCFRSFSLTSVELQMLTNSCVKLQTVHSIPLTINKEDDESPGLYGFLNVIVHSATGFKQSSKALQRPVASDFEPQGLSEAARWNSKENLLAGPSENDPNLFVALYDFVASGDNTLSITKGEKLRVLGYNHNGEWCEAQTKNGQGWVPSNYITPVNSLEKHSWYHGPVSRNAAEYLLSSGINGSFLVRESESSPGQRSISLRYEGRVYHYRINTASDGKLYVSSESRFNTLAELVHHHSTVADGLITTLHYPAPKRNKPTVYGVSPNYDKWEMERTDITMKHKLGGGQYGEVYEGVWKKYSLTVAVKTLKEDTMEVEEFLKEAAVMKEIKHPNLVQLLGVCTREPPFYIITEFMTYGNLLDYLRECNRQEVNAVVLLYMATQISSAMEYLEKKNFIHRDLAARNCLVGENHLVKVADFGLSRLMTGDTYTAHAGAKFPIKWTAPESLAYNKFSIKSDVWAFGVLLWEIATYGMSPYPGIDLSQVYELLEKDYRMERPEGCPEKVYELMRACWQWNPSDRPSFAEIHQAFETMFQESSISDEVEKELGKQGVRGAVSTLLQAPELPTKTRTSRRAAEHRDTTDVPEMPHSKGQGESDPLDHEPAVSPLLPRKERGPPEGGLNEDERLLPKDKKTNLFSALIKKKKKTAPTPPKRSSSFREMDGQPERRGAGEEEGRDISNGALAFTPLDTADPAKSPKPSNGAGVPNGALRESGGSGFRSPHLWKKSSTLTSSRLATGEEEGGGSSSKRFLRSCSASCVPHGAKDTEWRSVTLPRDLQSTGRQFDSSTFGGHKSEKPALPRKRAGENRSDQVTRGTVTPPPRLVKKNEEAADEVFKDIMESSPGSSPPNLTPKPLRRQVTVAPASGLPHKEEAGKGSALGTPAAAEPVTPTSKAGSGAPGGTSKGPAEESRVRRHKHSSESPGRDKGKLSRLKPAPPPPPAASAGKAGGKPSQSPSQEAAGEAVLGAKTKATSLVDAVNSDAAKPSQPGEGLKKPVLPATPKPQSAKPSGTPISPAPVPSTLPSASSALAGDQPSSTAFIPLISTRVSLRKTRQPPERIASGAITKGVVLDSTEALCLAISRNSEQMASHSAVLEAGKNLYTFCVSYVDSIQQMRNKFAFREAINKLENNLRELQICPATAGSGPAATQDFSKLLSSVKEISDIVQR
Sequence of c-ABL protein (P00519 whole entry): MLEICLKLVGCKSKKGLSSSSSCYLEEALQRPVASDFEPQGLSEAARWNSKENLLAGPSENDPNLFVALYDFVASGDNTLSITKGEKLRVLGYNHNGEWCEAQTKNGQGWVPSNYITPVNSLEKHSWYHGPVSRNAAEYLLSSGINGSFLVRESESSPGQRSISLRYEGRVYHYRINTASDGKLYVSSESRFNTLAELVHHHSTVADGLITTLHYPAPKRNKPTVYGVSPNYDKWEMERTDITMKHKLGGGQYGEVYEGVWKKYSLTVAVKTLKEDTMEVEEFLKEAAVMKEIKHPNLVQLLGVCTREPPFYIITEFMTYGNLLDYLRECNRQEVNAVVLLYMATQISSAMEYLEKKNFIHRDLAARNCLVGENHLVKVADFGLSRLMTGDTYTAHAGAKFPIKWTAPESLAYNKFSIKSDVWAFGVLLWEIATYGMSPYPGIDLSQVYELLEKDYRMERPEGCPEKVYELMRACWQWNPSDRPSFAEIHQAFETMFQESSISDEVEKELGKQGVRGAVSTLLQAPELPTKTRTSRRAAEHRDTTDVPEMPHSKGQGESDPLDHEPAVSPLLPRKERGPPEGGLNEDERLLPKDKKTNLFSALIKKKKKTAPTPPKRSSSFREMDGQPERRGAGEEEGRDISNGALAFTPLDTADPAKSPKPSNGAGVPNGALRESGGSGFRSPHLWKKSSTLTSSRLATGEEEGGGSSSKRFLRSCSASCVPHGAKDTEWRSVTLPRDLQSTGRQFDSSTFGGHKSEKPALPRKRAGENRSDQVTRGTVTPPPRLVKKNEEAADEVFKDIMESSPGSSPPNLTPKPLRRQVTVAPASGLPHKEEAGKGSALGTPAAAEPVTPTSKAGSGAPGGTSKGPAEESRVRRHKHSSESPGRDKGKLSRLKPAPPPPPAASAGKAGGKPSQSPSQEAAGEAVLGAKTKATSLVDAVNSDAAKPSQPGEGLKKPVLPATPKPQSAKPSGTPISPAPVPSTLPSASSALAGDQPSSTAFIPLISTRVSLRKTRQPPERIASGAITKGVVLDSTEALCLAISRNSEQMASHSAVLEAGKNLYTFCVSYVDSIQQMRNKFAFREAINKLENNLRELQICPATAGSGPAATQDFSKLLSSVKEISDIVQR

| SMILES | degradation of BCR-ABL protein (in words) [1] | DC50 [2] [nM] | DC50 [1] [nM] | IC50 [3] [nM] | IC50 [4] [nM] | IC50 [5] [nM] |
| --- | --- | --- | --- | --- | --- | --- |
| Cc1nc(Nc2ncc(C(=O)Nc3c(C)cccc3Cl)s2)cc(N2CCN(CCCCCCOCCOCCOCCCCCC(=O)N[C@H](C(=O)N3C[C@H](O)C[C@H]3C(=O)NCc3ccc(-c4scnc4C)cc3)C(C)(C)C)CC2)n1 [Dasa-6-2-2-6-vhl, N-(2-chloro-6-methylphenyl)-2-((6-(4-((S)-3-((2S,4R)-4-hydroxy-2-((4-(4-methylthiazol-5-yl)benzyl)carbamoyl)pyrrolidine-1-carbonyl)-2,2-dimethyl-5-oxo-11,14,17-trioxa-4-azatricosan-23-yl)piperazin-1-yl)-2-methylpyrimidin-4-yl)amino)thiazole-5-carboxamide, reference compound] | cannot degrade BCR-ABL protein | – | – | – | – | – |
| Cc1ccc(NC(=O)c2ccc(CN3CCN(C(=O)CCCCCCC(=O)N[C@H](C(=O)N4C[C@H](O)C[C@H]4C(=O)NCc4ccc(-c5scnc5C)cc4)C(C)(C)C)CC3)cc2)cc1Nc1nccc(-c2cccnc2)n1 [SIAIS074031, (2S,4R)-1-((S)-3,3-dimethyl-2-(8-(4-(4-((4-methyl-3-((4-(pyridin-3-yl)pyrimidin-2-yl)amino)phenyl)carbamoyl)benzyl)piperazin-1-yl)-8-oxooctanamido)butanoyl)-4-hydroxy-N-(4-(4-methylthiazol-5-yl)benzyl)pyrrolidine-2-carboxamide] | – | 100 to 1000 | 100 to 1000 | – | – | – |
| Cc1nc(Nc2ncc(C(=O)Nc3c(C)cccc3Cl)s2)cc(N2CCN(C(=O)CCOCCNc3cccc4c3C(=O)N(C3CCC(=O)NC3=O)C4=O)CC2)n1 (centres unmarked) [SIAIS151063, N-(2-chloro-6-methylphenyl)-2-((6-(4-(3-(2-((2-(2,6-dioxopiperidin-3-yl)-1,3-dioxoisoindolin-4-yl)amino)ethoxy)propanoyl)piperazin-1-yl)-2-methylpyrimidin-4-yl)amino)thiazole-5-carboxamide] | – | 1 to 10 | 1 to 10 | 972 | 276 | 2.7 |
| Cc1nc(Nc2ncc(C(=O)Nc3c(C)cccc3Cl)s2)cc(N2CCN(C(=O)CCOCCOCCNc3cccc4c3C(=O)N(C3CCC(=O)NC3=O)C4=O)CC2)n1 (centres unmarked) [SIAIS151064, N-(2-chloro-6-methylphenyl)-2-((6-(4-(3-(2-(2-((2-(2,6-dioxopiperidin-3-yl)-1,3-dioxoisoindolin-4-yl)amino)ethoxy)ethoxy)propanoyl)piperazin-1-yl)-2-methylpyrimidin-4-yl)amino)thiazole-5-carboxamide] | – | 10 to 100 | 1 to 10 | > 10000 | > 10000 | 8.05 |
| Cc1nc(Nc2ncc(C(=O)Nc3c(C)cccc3Cl)s2)cc(N2CCN(C(=O)CCOCCOCCOCCNc3cccc4c3C(=O)N(C3CCC(=O)NC3=O)C4=O)CC2)n1 (centres unmarked) [SIAIS151067, N-(2-chloro-6-methylphenyl)-2-((6-(4-(3-(2-(2-(2-((2-(2,6-dioxopiperidin-3-yl)-1,3-dioxoisoindolin-4-yl)amino)ethoxy)ethoxy)ethoxy)propanoyl)piperazin-1-yl)-2-methylpyrimidin-4-yl)amino)thiazole-5-carboxamide] | – | 10 to 100 | 1 to 10 | > 10000 | > 10000 | 14.8 |
| Cc1nc(Nc2ncc(C(=O)Nc3c(C)cccc3Cl)s2)cc(N2CCN(C(=O)CCOCCOCCOCCOCCNc3cccc4c3C(=O)N(C3CCC(=O)NC3=O)C4=O)CC2)n1 (centres unmarked) [SIAIS151068, N-(2-chloro-6-methylphenyl)-2-((6-(4-(1-((2-(2,6-dioxopiperidin-3-yl)-1,3-dioxoisoindolin-4-yl)amino)-3,6,9,12-tetraoxapentadecan-15-oyl)piperazin-1-yl)-2-methylpyrimidin-4-yl)amino)thiazole-5-carboxamide] | – | 10 to 100 | 1 to 10 | > 10000 | > 10000 | 40.4 |
| Cc1nc(Nc2ncc(C(=O)Nc3c(C)cccc3Cl)s2)cc(N2CCN(C(=O)CCOCCOCCOCCOCCOCCNc3cccc4c3C(=O)N(C3CCC(=O)NC3=O)C4=O)CC2)n1 (centres unmarked) [SIAIS151069, N-(2-chloro-6-methylphenyl)-2-((6-(4-(1-((2-(2,6-dioxopiperidin-3-yl)-1,3-dioxoisoindolin-4-yl)amino)-3,6,9,12,15-pentaoxaoctadecan-18-oyl)piperazin-1-yl)-2-methylpyrimidin-4-yl)amino)thiazole-5-carboxamide] | – | 10 to 100 | 1 to 10 | > 10000 | > 10000 | 31.9 |
| Cc1nc(Nc2ncc(C(=O)Nc3c(C)cccc3Cl)s2)cc(N2CCN(C(=O)CCCNc3cccc4c3C(=O)N(C3CCC(=O)NC3=O)C4=O)CC2)n1 (centres unmarked) [SIAIS151070, N-(2-chloro-6-methylphenyl)-2-((6-(4-(4-((2-(2,6-dioxopiperidin-3-yl)-1,3-dioxoisoindolin-4-yl)amino)butanoyl)piperazin-1-yl)-2-methylpyrimidin-4-yl)amino)thiazole-5-carboxamide] | – | 1 to 10 | 1 to 10 | > 10000 | > 10000 | 5.5 |
| Cc1nc(Nc2ncc(C(=O)Nc3c(C)cccc3Cl)s2)cc(N2CCN(C(=O)CCCCNc3cccc4c3C(=O)N(C3CCC(=O)NC3=O)C4=O)CC2)n1 (centres unmarked) [SIAIS151071, N-(2-chloro-6-methylphenyl)-2-((6-(4-(5-((2-(2,6-dioxopiperidin-3-yl)-1,3-dioxoisoindolin-4-yl)amino)pentanoyl)piperazin-1-yl)-2-methylpyrimidin-4-yl)amino)thiazole-5-carboxamide] | – | 1 to 10 | < 1 | > 10000 | > 10000 | 0.55 |
| Cc1nc(Nc2ncc(C(=O)Nc3c(C)cccc3Cl)s2)cc(N2CCN(C(=O)CNc3cccc4c3C(=O)N(C3CCC(=O)NC3=O)C4=O)CC2)n1 (centres unmarked) [SIAIS151072, N-(2-chloro-6-methylphenyl)-2-((6-(4-((2-(2,6-dioxopiperidin-3-yl)-1,3-dioxoisoindolin-4-yl)glycyl)piperazin-1-yl)-2-methylpyrimidin-4-yl)amino)thiazole-5-carboxamide] | – | 1 to 10 | < 1 | > 10000 | > 10000 | 1.22 |
| COc1cc(Nc2c(C#N)cnc3cc(OCCCN4CCN(C(=O)CNc5cccc6c5C(=O)N(C5CCC(=O)NC5=O)C6=O)CC4)c(OC)cc23)c(Cl)cc1Cl (centres unmarked) [SIAIS151164, 4-((2,4-dichloro-5-methoxyphenyl)amino)-7-(3-(4-((2-(2,6-dioxopiperidin-3-yl)-1,3-dioxoisoindolin-4-yl)glycyl)piperazin-1-yl)propoxy)-6-methoxyquinoline-3-carbonitrile] | – | 10 to 100 | 10 to 100 | – | – | – |
| Cc1ccc(NC(=O)c2ccc(CN3CCN(C(=O)CCOCCOCCOCCOCCC(=O)N[C@H](C(=O)N4C[C@H](O)C[C@H]4C(=O)NCc4ccc(-c5scnc5C)cc4)C(C)(C)C)CC3)cc2)cc1Nc1nccc(-c2cccnc2)n1 [SIAIS1197039, (2S,4R)-1-((S)-2-(tert-butyl)-19-(4-(4-((4-methyl-3-((4-(pyridin-3-yl)pyrimidin-2-yl)amino)phenyl)carbamoyl)benzyl)piperazin-1-yl)-4,19-dioxo-7,10,13,16-tetraoxa-3-azanonadecanoyl)-4-hydroxy-N-(4-(4-methylthiazol-5-yl)benzyl)pyrrolidine-2-carboxamide] | – | 1000 | 1000 | – | – | – |
